Data published in US20080220056A1, “Treatment for liver disease” (UNIVERSITY OF SOUTHAMPTON, priority 2002, published 2008).
Square brackets hold non-standard residues; d marks the D form. Peptide text beside a SMILES is read from it. * marks the point of attachment. Nle = CCCC[C@H](N)C(=O)O; Cbz = O=C(OCc1ccccc1)*; CH2F = FC*

Key:
Format in all cases: cell-based
[1] = system: NF-kB DNA binding activity; experiment: Electromobility shift assay for NF-kB DNA binding activity in rat hepatic stellate cells; conditions: activated rat HSC; for TNF-α-inducible NF-kB DNA binding activity: 10 ng/mL TNF-α, same concentrations as for constitutive activity; for constitutive NF-kB DNA binding activity: gliotoxin 1.5 μmol/L, N-acetyl cysteine 5 mM, calpain inhibitor 1 50 μM, dexamethasone 0.5 μm, pentoxyfilline 3.6 mM
Experimental: Crude high salt extractable nuclear protein was prepared from activated hepatic stellate cells for analysis of NF-kB DNA binding activity essentially as described (Elsharkawy et al., supra), aliquoted and stored at −80° C. until required. Extract protein concentrations were determined using the Lowry colorimetric assay (Lowry et al., supra) with bovine serum albumin as standard. A double stranded 5′ end labeled radiolabeled oligonucleotide [sense 5′-[…]-[…] (SEQ ID NO:1)] containing a consensus NF-kB DNA binding site as underlined (Baldwin et al., Annu. Rev. Immunol., (1996) 14:649-681) was used to determine NFkB DNA binding activity in crude nuclear extracts (Elsharkawy et al., supra).
The effect of gliotoxin on NF-kB activity in hepatic stellate cells was investigated. Culture-activated (14-day) rat hepatic stellate cells were incubated in the presence or absence of 10 ng/mL TNF-α fifteen minutes after addition of:
After a further 30 minutes, and before any significant morphologic changes, cells were washed with ice-cooled PBS, nuclear extracts prepared, and NF-kB DNA binding activity assessed by gel shift analysis. […] Each lane contained […] of protein and the results were the same for at least three separate experiments.

[2] = system: rat hepatic stellate cells; experiment: Morphology and detachment of culture-activated rat hepatic stellate cells (light microscopy); conditions: rat HSC; for effect on morphologic alterations / detachment caused by gliotoxin: with 1.5 μmol/L gliotoxin, Z-VAD-FMK 100 μmol/L, PDTC 300 μmol/L, tamoxifen 100 μmol/L, m-IBG 250 (mmol/L in the source), quin-2-am 50 μmol/L
Description: Rat hepatic stellate cells (HSCs) were isolated by pronase/collagenase perfusion and purified by isopycnic density centrifugation in Opti-prep™ (Nycomed, Amersham, England) and elutriation essentially as previously described (Bahr et al., Hepatology (1999) 29:839-848). Human hepatic stellate cells were isolated from discarded resected liver via a similar protocol (Trim et al., J. Biol. Chem., (2000) 275:6657-6663). The use of human liver tissue for scientific investigation was approved by the UK South and West Local Research Ethics Committee and was subject to patient consent.
It has been shown recently that liver myofibroblasts may contribute to liver fibrogenesis and that liver myofibroblasts may have the potential to contaminate passaged hepatic stellate cell cultures (Knittel et al., Gastronenterology, (1999) 117:1205-1221). In this study, only primary cultures of hepatic stellate cells were used, which were desmin and glial fibrillary acid protein positive (markers shown to be expressed in hepatic stellate cells, but not liver myofibroblasts—Knittel et al., supra).
(§1) Cells were treated with gliotoxin dissolved in DMSO vehicle (added to medium from a 2000-fold molar concentrated stock). Control cells received DMSO vehicle only (i.e., 0.05% vol/vol). All other additions to culture medium were made from concentrated stocks dissolved in DMSO or by direct addition to culture medium. Protein contents of wells were determined using the Lowry assay (Lowry et al., J. Biol. Chem., (1951)193: 265-275).
Culture activated rat (14 day) and human (24 day) hepatic stellate cells were treated with DMSO solvent control or 1.5 μMol/L gliotoxin. […] Hepatic stellate cells changed from a flattened fibroblastic phenotype with distinct cell-cell interfaces to a substratum detached, rounded, and blebbed morphology.

[3] = system: rat hepatic stellate cells; experiment: Low molecular weight DNA fragmentation (nucleosomal ladder) in rat hepatic stellate cells; conditions: four hours; for effect on gliotoxin-induced cleavage of DNA to a nucleosomal ladder: with 1.5 μmol/L gliotoxin, PDTC 300 μmol/L, tamoxifen 100 μmol/L, m-IBG 250 (mmol/L in the source), cyclosporin 10 μmol/L, quin-2-am 50 μmol/L
Experimental: (§2) Hepatic stellate cells cultured in 35-mm diameter dishes (Greiner) were harvested, pelleted by centrifugation and DNA fragmentation determined as outlined elsewhere (Elsharkawy et al., Hepatology (1999) 30:761-769). Propidium Iodide Flow-Activated Cell Sorting Analysis Detached cells were pelleted by centrifugation, washed in PBS, and resuspended in HYPO buffer (0.1% wt/vol) Na3Citrate and 0.1% (wt/vol) Triton™ X-100 containing […] propidium iodide and incubated for 1 hour. The cells were then analyzed by fluorescence-activated cell sorter (FACS) with a Becton Dickinson (San Jose, Calif.) FACScan instrument using a 488 nm excitation wavelength with a band pass filter set at 530 nm. Attached cells were scraped in HYPO buffer after washing cells with PBS.
The effect of gliotoxin on the cleavage of DNA to a nucleosomal ladder was examined because this phenomenon is characteristic of apoptosis. Culture activated (14-day) rat hepatic stellate cells in six well plates were treated with either 0.05% (vol/vol) DMSO for four hours or 1.5 μmol/L gliotoxin for zero hours, half an hour, one hour, two hours or four hours. At each time point, both detached and attached cells were harvested together and low molecular weight DNA (20,000 g supernatant) fragmentation determined as outlined in the materials and methods section. At least three separate experiments were performed. 1 kilobase DNA ladder (Promega) was used as a molecular weight marker.
The effect of various compounds on DNA laddering was then determined. Culture-activated (14-day) rat hepatic stellate cells in six-well plates were treated with:
After fours hours of treatment, DNA fragmentation was determined.
Culture activated (14 day) rat hepatic stellate cells in six well plates were treated with: • (a) 0.05% (vol/vol) DMSO; • (b) 1.5 μmol/L gliotoxin; • (c) 1.5 μmol/L gliotoxin with 100 μmol/L tamoxifen; • (d) 1.5 μmol/L gliotoxin with […] actinomycin d; • (e) 1.5 μmol/L gliotoxin with 10 μmol/L cycloheximide; • (f) 1.5 μmol/L gliotoxin with 10 μmol/L cyclosporin; • (g) 1.5 μmol/L gliotoxin with […] m-iodobenzylguanidine; • (h) 1.5 μmol/L gliotoxin with 50 μmol/L quin-2-am; • (i) 50 μmol/L guin-2-am alone; • (j) 250 μmol/L m-iodobenzylguanidine; • (k) 10 μmol/L cyclosporin; • (l) 10 μmol/L cycloheximide; • (m) 1 μg/ml actinomycin d; or • (n) 100 μmol/L tamoxifen.
After four hours of treatment, DNA fragmentation was determined as outlined in Materials and Methods.

[4] = system: caspase 3 activity in rat hepatic stellate cells; experiment: Caspase 3 (Ac-DEVD-pNA cleavage) activity in rat hepatic stellate cells; conditions: 20 μmol/L Z-VAD-FMK with 1.5 μmol/L gliotoxin, three hours
Experimental: Hepatic stellate cells cultured in 100 mm diameter dishes (Greiner, Frickenhausen, Germany) were harvested and pelleted by centrifugation. The medium supernatant was discarded and the cell pellet was washed in 1 mL of ice-cooled phosphate buffered saline (PBS). Caspase 3 (DEVDase) activity was determined using a colorimetric CaspACE kit (Promega, Southampton, England) using the manufacturer's instructions.
Caspase 3 (Ac-DEVD-pNA cleavage) activity was then examined in control and gliotoxin-treated hepatic stellate cells. Culture activated rat hepatic stellate cells (14 days) in 100 mm diameter plates were treated with 0.05% (vol/vol) DMSO, 1.5 μmol/L gliotoxin, 20 μmol/L Z-VAD-FMK or 200 μmol/L chlorpromazine for three hours. The cells were then harvested for examination of caspase 3 activity as outlined in the materials and methods sections.

[5] = system: rat hepatocytes; experiment: DNA laddering in rat hepatocytes; conditions: four hours; 50 μmol/L gliotoxin, 200 μmol/L chlorpromazine, 200 μmol/L methapyrilene, 10 ng/mL TNF-α with cycloheximide
Experimental: as §2
DNA laddering was also used to compare the effect of gliotoxin, chlorpromazine, methapyrilene and also the combination of TNF-α with cycloheximide on hepatocytes and hepatic stellate cells.

[6] = system: rat hepatocytes; experiment: Rat hepatocyte viability by attachment and trypan blue exclusion; conditions: 200 μmol/L, four hours
Experimental: Rat hepatocytes were isolated by collagenase perfusion essentially as previously described. (Harvey et al., Biochemical J., (1998) 331:273-281). Hepatocytes were cultured as outlined for hepatic stellate cells except that they were initially seeded onto collagen coated plates in William's medium E supplemented with 10% fetal calf serum and 1 μg/mL insulin for the first 2 hours.
as §1
The effect of various compounds on cell viability and attachment was determined. Viability of rat hepatocytes as judged by attachment and 0.1% (wt/vol) trypan blue exclusion after four hours treatment with: […]

SMILES | TNF-α-inducible NF-kB DNA binding activity [1] | constitutive NF-kB DNA binding activity [1] | effect on morphologic alterations / detachment caused by gliotoxin [2] | effect on gliotoxin-induced cleavage of DNA to a nucleosomal ladder [3] | other results
CCCC[C@@H](C=O)NC(=O)[C@H](CC(C)C)NC(=O)[C@H](CC(C)C)NC(C)=O [Calpain inhibitor 1] (Ac-Leu-Leu-[Nle]-aldehyde) | inhibited the formation and altered the mobilities | inhibited the formation and altered the mobilities |  |  | apoptosis judged by morphologic and biochemical criteria (caspase 3 induction, nucleosomal ladder) ([2]; 50 μM calpain inhibitor 1): did not result in the apoptosis of rat hepatic stellate cells
CC(=O)N[C@@H](CS)C(=O)O [N-acetyl cysteine] | little effect | little effect |  |  | 
COC(=O)C[C@H](NC(=O)[C@H](C)NC(=O)[C@@H](NC(=O)OCc1ccccc1)C(C)C)C(=O)CF [Z-VAD-FMK, benzyloxycarbonyl-Val-Ala-Asp-fluoromethylketone] (Cbz-Val-Ala-Asp(OMe)-CH2F) |  |  | did not prevent the morphologic alterations caused by gliotoxin |  | inhibition of gliotoxin-induced nucleosomal ladder ([3]; Z-VAD-FMK 1 μmol/L with 1.5 μmol/L gliotoxin): substantial inhibition; inhibition of gliotoxin-induced nucleosomal ladder ([3]; Z-VAD-FMK 100 and 10 (m/L printed) with 1.5 μmol/L gliotoxin): inhibited completely; effect on gliotoxin-induced caspase 3 activity [4]: inhibited by cotreatment
N=C(N)NCc1cccc(I)c1 [m-iodobenzylguanidine] |  |  | did not prevent the detachment of hepatic stellate cells from the substratum | prevented the cleavage of DNA to a nucleosomal ladder | 
CN(C)CCN(Cc1cccs1)c1ccccn1 [methapyrilene] |  |  |  |  | cleavage of hepatocyte DNA to a nucleosomal ladder [5]: only hepatocytes treated with TNF-α and cycloheximide cleaved their DNA to a nucleosomal ladder; hepatocytes that do not exclude trypan blue, compared with 50 μmol/L gliotoxin [6]: a level similar
CC(=O)CCCCn1c(=O)c2c(ncn2C)n(C)c1=O [pentoxyfilline] | little effect | little effect |  |  | 
COc1cc(N(CC(=O)OCOC(C)=O)CC(=O)OCOC(C)=O)c2nc(COc3cc(C)ccc3N(CC(=O)OCOC(C)=O)CC(=O)OCOC(C)=O)ccc2c1 [quin-2AM] |  |  | without preventing cell detachment | blocks DNA cleavage | 
CC/C(=C(\c1ccccc1)c1ccc(OCCN(C)C)cc1)c1ccccc1 [tamoxifen] |  |  | did not prevent the detachment of hepatic stellate cells from the substratum | prevented the cleavage of DNA to a nucleosomal ladder | 
